Assay results as given in US20250206732A1, “COMPOUNDS AND METHODS FOR THE TARGETED DEGRADATION OF KRAS” (Arvinas Operations, Inc., priority 2022, published 2025).

Biological target: T1, AsPC-1 HiBiT-KRASG12D (Homo sapiens, UniProt P01116, G12D)
T1 construct: insert the HiBiT tag onto the N-terminus of one or more of the endogenous KRAS alleles; endogenous in cells; host or cells: AsPC-1 (ATCC CRL-1682), CRISPR-Cas9 knock-in clone, one tagged allele
Assay: HiBiT degradation assay (G12D), AsPC-1 HiBiT-KRASG12D cells
Type: cell-based
Settings: 24 hours treatment; for Dmax: ASPC1, AsPC-1 HiBiT-KRASG12D cells, maximum degradation observed; for DC50: AsPC-1 HiBiT-KRASG12D cells, HiBiT luminescence
Summary of the method: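 AsPC-1 cells (homozygous G12D) carrying a CRISPR knock-in N-terminal HiBiT tag on endogenous KRAS were treated with compounds for 24 hours at 37° C, 5% CO2, in triplicate. Alamar blue viability was read first, then cells were washed and lysed with Nano-Glo HiBiT reagent for 45 minutes before luminescence reading.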

T1 sequence (P01116 1-188 isoform P01116-2 G12D): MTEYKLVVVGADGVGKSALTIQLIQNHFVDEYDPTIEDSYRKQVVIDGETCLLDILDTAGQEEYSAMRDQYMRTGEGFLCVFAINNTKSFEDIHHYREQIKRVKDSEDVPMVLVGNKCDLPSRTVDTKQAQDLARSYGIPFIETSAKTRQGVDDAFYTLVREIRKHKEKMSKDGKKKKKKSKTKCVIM

Row | SMILES | Dmax | DC50
1 | C#Cc1c(F)ccc2cc(O)cc(-c3ncc4c(N5CC6CCC(C5)N6)nc(OCCN5CCC(CN6CCN(c7cc([C@H](C(=O)N8C[C@H](O)C[C@H]8C(=O)N[C@@H](C)c8ccc(-c9scnc9C)cc8)C(C)C)on7)CC6)CC5)nc4c3F)c12 [Compound 206, (2S,4R)-1-[(2R)-2-(3-{4-[(1-{2-[(4-{3,8-diazabicyclo[3.2.1]octan-3-yl}-7-(8-ethynyl-7-fluoro-3-hydroxynaphthalen-1-yl)-8-fluoropyrido[4,3-d]pyrimidin-2-yl)oxy]ethyl}piperidin-4-yl)methyl]piperazin-1-yl}-1,2-oxazol-5-yl)-3-methylbutanoyl]-4-hydroxy-N-[(1S)-1-[4-(4-methyl-1,3-thiazol-5-yl)phenyl]ethyl]pyrrolidine-2-carboxamide] | 80 to 100% | < 600 nM
2 | CCc1cccc2cc(O)cc(-c3ncc4c(N5CC6CCC(C5)N6)nc(OC[C@]56CCCN5[C@H](COC(=O)N5CCN(c7cc([C@@H](C(=O)N8C[C@H](O)C[C@H]8C(=O)N[C@@H](C)c8ccc(-c9scnc9C)cc8)C(C)C)on7)C[C@@H]5C)CC6)nc4c3F)c12 [Compound 133, [(3S,7aR)-7a-{[(4-{3,8-diazabicyclo[3.2.1]octan-3-yl}-7-(8-ethyl-3-hydroxynaphthalen-1-yl)-8-fluoropyrido[4,3-d]pyrimidin-2-yl)oxy]methyl}-hexahydro-1H-pyrrolizin-3-yl]methyl (2S)-4-{5-[(2S)-1-[(2S,4R)-4-hydroxy-2-{[(1S)-1-[4-(4-methyl-1,3-thiazol-5-yl)phenyl]ethyl]carbamoyl}pyrrolidin-1-yl]-3-methyl-1-oxobutan-2-yl]-1,2-oxazol-3-yl}-2-methylpiperazine-1-carboxylate] | < 20% | < 600 nM
3 | Cc1ncsc1-c1ccc([C@H](C)NC(=O)[C@@H]2C[C@@H](O)CN2C(=O)[C@@H](c2cc(N3CCN(C(=O)OC[C@@H]4CC[C@@]5(COc6nc(N7CC8CCC(C7)N8)c7cnc(-c8cccc9ccc(F)c(F)c89)c(F)c7n6)CCCN45)CC3)no2)C(C)C)cc1 (relative stereo) [Compound 269, ((3S,7aR)-7a-(((4-((1R,5S)-3,8-diazabicyclo[3.2.1]octan-3-yl)-7-(7,8-difluoronaphthalen-1-yl)-8-fluoropyrido[4,3-d]pyrimidin-2-yl)oxy)methyl)hexahydro-1H-pyrrolizin-3-yl)methyl 4-(5-((R)-1-((2S,4R)-4-hydroxy-2-(((S)-1-(4-(4-methylthiazol-5-yl)phenyl)ethyl)carbamoyl)pyrrolidin-1-yl)-3-methyl-1-oxobutan-2-yl)isoxazol-3-yl) piperazine-1-carboxylate] | 60 to 80% | < 600 nM
4 | C#Cc1c(F)ccc2cc(O)cc(-c3ncc4c(N5CC6CCC(C5)N6)nc(OCCN5CCC6(CC5)CN(c5cc(C(C(=O)N7C[C@H](O)C[C@H]7C(=O)N[C@@H](C)c7ccc(-c8ccnn8C)cc7)C(C)C)on5)C6)nc4c3F)c12 (single isomer, unassigned) [Compound 83, (2S,4R)-1-[(2R*)-2-[3-(7-{2-[(4-{3,8-diazabicyclo[3.2.1]octan-3-yl}-7-(8-ethynyl-7-fluoro-3-hydroxynaphthalen-1-yl)-8-fluoropyrido[4,3-d]pyrimidin-2-yl)oxy]ethyl}-2,7-diazaspiro[3.5]nonan-2-yl)-1,2-oxazol-5-yl]-3-methylbutanoyl]-4-hydroxy-N-[(1S)-1-[4-(1-methyl-1H-pyrazol-5-yl)phenyl]ethyl]pyrrolidine-2-carboxamide] | 80 to 100% | < 600 nM
5 | Cc1ncsc1-c1ccc([C@H](C)NC(=O)[C@@H]2C[C@@H](O)CN2C(=O)[C@@H](c2cc(N3CCN(C(=O)OC[C@@H]4CC[C@]5(COc6nc(N7CC8CCC(C7)N8)c7cc(Cl)c(-c8cc(O)cc9ccccc89)c(F)c7n6)CCCN45)CC3)no2)C(C)C)cc1 (relative stereo) [Compound 328, [(3S,8S)-8-[[6-chloro-4-(3,8-diazabicyclo[3.2.1]octan-3-yl)-8-fluoro-7-(3-hydroxy-1-naphthyl)quinazolin-2-yl]oxymethyl]-1,2,3,5,6,7-hexahydropyrrolizin-3-yl]methyl 4-[5-[(1R)-1-[(2S,4R)-4-hydroxy-2-[[(1S)-1-[4-(4-methylthiazol-5-yl)phenyl]ethyl]carbamoyl]pyrrolidine-1-carbonyl]-2-methyl-propyl]isoxazol-3-yl]piperazine-1-carboxylate] | 80 to 100% | < 600 nM
6 | CCc1cccc2cc(O)cc(-c3ncc4c(N5CC6CCC(C5)N6)nc(OC[C@]56CCCN5[C@H](COC(=O)N5CCN(c7cc([C@@H](C(=O)N8C[C@H](O)C[C@H]8C(=O)N[C@@H](C)c8ccc(-c9scnc9C)cc8)C(C)C)on7)CC5)CC6)nc4c3F)c12 [Compound 87, [(3S,7aR)-7a-{[(4-{3,8-diazabicyclo[3.2.1]octan-3-yl}-7-(8-ethyl-3-hydroxynaphthalen-1-yl)-8-fluoropyrido[4,3-d]pyrimidin-2-yl)oxy]methyl}-hexahydro-1H-pyrrolizin-3-yl]methyl 4-{5-[(2S)-1-[(2S,4R)-4-hydroxy-2-{[(1S)-1-[4-(4-methyl-1,3-thiazol-5-yl)phenyl]ethyl]carbamoyl}pyrrolidin-1-yl]-3-methyl-1-oxobutan-2-yl]-1,2-oxazol-3-yl}piperazine-1-carboxylate] | 20 to 60% | 600 to 1000 nM
7 | CCc1cccc2cc(O)cc(-c3ncc4c(N5CC6CCC(C5)N6)nc(OCCN5CCC(F)(CN6CCN(c7cc([C@H](C(=O)N8C[C@H](O)C[C@H]8C(=O)N[C@@H](C)c8ccc(-c9scnc9C)cc8)C(C)C)on7)[C@@H](C)C6)CC5)nc4c3F)c12 [Compound 209, (2S,4R)-1-[(2R)-2-{3-[(2S)-4-[(1-{2-[(4-{3,8-diazabicyclo[3.2.1]octan-3-yl}-7-(8-ethyl-3-hydroxynaphthalen-1-yl)-8-fluoropyrido[4,3-d]pyrimidin-2-yl)oxy]ethyl}-4-fluoropiperidin-4-yl)methyl]-2-methylpiperazin-1-yl]-1,2-oxazol-5-yl}-3-methylbutanoyl]-4-hydroxy-N-[(1S)-1-[4-(4-methyl-1,3-thiazol-5-yl)phenyl]ethyl]pyrrolidine-2-carboxamide] | 80 to 100% | < 600 nM
8 | CCc1cccc2cc(O)cc(-c3ncc4c(N5CC6CCC(C5)N6)nc(OCCN5CC[C@H]6[C@H](CCN6c6cc([C@@H](C(=O)N7C[C@H](O)C[C@H]7C(=O)N[C@@H](C)c7ccc(-c8scnc8C)cc7)C(C)C)on6)C5)nc4c3F)c12 (relative stereo) [Compound 75, (2S,4R)-1-[(2R*)-2-{3-[(3aR**,7aR***)-5-{2-[(4-{3,8-diazabicyclo[3.2.1]octan-3-yl}-7-(8-ethyl-3-hydroxynaphthalen-1-yl)-8-fluoropyrido[4,3-d]pyrimidin-2-yl)oxy]ethyl}-octahydro-1H-pyrrolo[3,2-c]pyridin-1-yl]-1,2-oxazol-5-yl}-3-methylbutanoyl]-4-hydroxy-N-[(1S)-1-[4-(4-methyl-1,3-thiazol-5-yl)phenyl]ethyl]pyrrolidine-2-carboxamide] | 60 to 80% | 1000 to 3000 nM
9 | C#Cc1c(F)ccc2cc(O)cc(-c3ncc4c(N5CC6CCC(C5)N6)nc(OC[C@@]56CCCN5[C@H](COc5cc([C@H](C(=O)N7C[C@H](O)C[C@H]7C(=O)N[C@@H](C)c7ccc(-c8scnc8C)cc7)C(C)C)on5)CC6)nc4c3F)c12 [Compound 314, (2S,4R)-1-[(2R)-2-[3-[[(3S,8S)-8-[[4-(3,8-diazabicyclo[3.2.1]octan-3-yl)-7-(8-ethynyl-7-fluoro-3-hydroxy-1-naphthyl)-8-fluoro-pyrido[4,3-d]pyrimidin-2-yl]oxymethyl]-1,2,3,5,6,7-hexahydropyrrolizin-3-yl]methoxy]isoxazol-5-yl]-3-methyl-butanoyl]-4-hydroxy-N-[(1S)-1-[4-(4-methylthiazol-5-yl)phenyl]ethyl]pyrrolidine-2-carboxamide] | 80 to 100% | < 600 nM
10 | CCc1cccc2cc(O)cc(-c3ncc4c(N5CC6CCC(C5)N6)nc(OCCN5CCC(OC6CN(c7cc([C@H](C(=O)N8C[C@H](O)C[C@H]8C(=O)N[C@@H](C)c8ccc(-c9scnc9C)cc8)C(C)C)on7)C6)CC5)nc4c3F)c12 [Compound 215, (2S,4R)-1-[(2R)-2-(3-{3-[(1-{2-[(4-{3,8-diazabicyclo[3.2.1]octan-3-yl}-7-(8-ethyl-3-hydroxynaphthalen-1-yl)-8-fluoropyrido[4,3-d]pyrimidin-2-yl)oxy]ethyl}piperidin-4-yl)oxy]azetidin-1-yl}-1,2-oxazol-5-yl)-3-methylbutanoyl]-4-hydroxy-N-[(1S)-1-[4-(4-methyl-1,3-thiazol-5-yl)phenyl]ethyl]pyrrolidine-2-carboxamide] | 80 to 100% | < 600 nM
11 | CCc1cccc2cc(O)cc(-c3ncc4c(N5CC6CCC(C5)N6)nc(OCCN5CCC(C(C)(C)N6CCN(c7cc([C@H](C(=O)N8C[C@H](O)C[C@H]8C(=O)N[C@@H](C)c8ccc(-c9scnc9C)cc8)C(C)C)on7)CC6)CC5)nc4c3F)c12 [Compound 186, (2S,4R)-1-[(2R)-2-(3-{4-[2-(1-{2-[(4-{3,8-diazabicyclo[3.2.1]octan-3-yl}-7-(8-ethyl-3-hydroxynaphthalen-1-yl)-8-fluoropyrido[4,3-d]pyrimidin-2-yl)oxy]ethyl}piperidin-4-yl)propan-2-yl]piperazin-1-yl}-1,2-oxazol-5-yl)-3-methylbutanoyl]-4-hydroxy-N-[(1S)-1-[4-(4-methyl-1,3-thiazol-5-yl)phenyl]ethyl] pyrrolidine-2-carboxamide] | 80 to 100% | < 600 nM
